Blank lines part the entries; values can stand above or below the compound they belong to.
How the values were obtained:
rat C6 glioma cells = experiment: Cellular growth assay (crystal violet, A600), rat C6 glioma cells; format: cell-based; settings: for growth-inhibitory effect compared to untreated cells (control): FIG. 1A; for effect on cell growth: FIG. 4; for inhibits growth: FIG. 1B
From the text: (§1) Cells were obtained from American type culture collection (ATCC, Rockville, Md.). Regular cell culture media, L-glutamine, penicillin-streptomycin, trypsin, and donor calf serum were obtained from Life Technologies. Dulbeccos Modified Earles Medium, medium 199 and Ham's F-12 medium were purchased from Sigma, difluoromethylornithine (DFMO) was from ILEX Oncology, San Antonio, Tex. Epidermal growth factor was purchased from Genzyme, Cambridge, Mass. and crystal violet from Merck, Germany.
(§2) Cells were cultured as monolayers in Dulbeccos Modified Earles Medium (DMEM) supplemented with 10% (v/v) fetal bovine serum, 2 mM L-glutamine, penicillin (100 U/mL) and streptomycin (100 μg/mL) in an incubator with humidified atmosphere and 5% CO2 at 37° C.
(§3) The growth assay procedure has been described elsewhere (Mani et al., 1998, Cancer Res. 58: 1099-1104). Cells were seeded into 96-well microculture plates at 3000 cells/well in DMEM supplemented with insulin (10 ng/mL), transferrin (25 ng/mL) and 10% fetal calf serum. After 4 h of plating the cells were placed in serum-free Ham's F-12 medium supplemented with insulin (10 ng/mL) and transferrin (25 ng/mL) for an additional 24 h. […] In some experiments cells were pre-treated with DFMO to up-regulate spermine uptake (Belting et al., 2003, J. Biol. Chem. 278: 47181-47189). Controls without growth factor as well as solvent (DMSO) controls were included. The total time of exposure to the various agents was 5 days. Cells were fixed in 1% glutaraldehyde dissolved in Hanks balanced salt solution (NaCl 80 g/L, KCl 4 g/l, glucose 10 g/L, KH2PO4 600 mg/L, NaHPO4 475 mg/L) for 15 min, then cell nuclei were stained with 0.1% crystal violet. After washing and cell lysis for 24 h in Triton X-100, the amount of bound dye was measured at A600 in a microplate photometer (Titertek multiscan). The results are presented as the difference between A600 obtained after 5 days and that obtained immediately after seeding of the cells (t=0).

[1] = after uptake by DFMO-treated cells; cited from earlier work
[2] = tested on: rat C6 glioma cells implanted subcutaneously; experiment: Subcutaneous C6 glioma tumors in SCID mice; format: in vivo
Protocol: (§4) Treatment with xyloside was daily contralateral subcutaneous injections (1.7 mM solution; 0.5 ml for mice, 5 ml for rats) for 2 weeks. DFMO (0.1% w/v) was administered via the drinking water.
(§5) Female SCIDnodCA mice (7-8 weeks old) or Fisher rats (12 week old) were kept under pathogen-free conditions in the animal barrier facility at the Biomedical Center, Lund University, according to the Swedish guidelines for humane treatment of laboratory animals. The experimental set-up was approved by the ethical committee for animal research in Malmö/Lund, Sweden. To generate tumors, rat C6 glioma cells or human bladder T24 carcinoma cells (1×10^6 cells in 200 μl PBS) were injected subcutaneously in the dorsal region of 7-8 week old mice (n=4-8) or intracerebrally in rats.
(§6) In the present studies, animals (n=8) received 1.7 mM Xyl-2-Nap-6-OH, i.e. a saturated solution, either ad libitum via the drinking water, or by daily injections either subcutaneously (0.5 ml for mice, 5 ml for rats) or intraperitoneally (0.5 ml) for a total period of up to 2 weeks. Controls received drinking water with no additives or daily injections with sterile water. Food and water intake and changes in body weight were monitored. The xyloside was administered either concurrent with or 3 weeks post-injection. In the latter case, the animals were randomly divided into control and treatment groups with no significant differences in tumor volume. The animals were sacrificed following 2-3 weeks of treatment, and tumor mass or volume was recorded.

[3] = tested on: human bladder carcinoma T24 cells; experiment: Cellular growth assay, human bladder carcinoma T24 cells; format: cell-based; settings: for cytotoxic effect on T24 cells: 0.5 mM xyloside, FIG. 5A / FIG. 2
From the text: as §1, §2, §3

[4] = tested on: normal human lung fibroblasts; experiment: Cellular growth assay, normal human lung fibroblasts; format: cell-based
From the text: as §1, §2
The growth assay procedure has been described elsewhere (Mani et al., 1998, Cancer Res. 58: 1099-1104). Cells were seeded into 96-well microculture plates at 3000 cells/well in DMEM supplemented with insulin (10 ng/mL), transferrin (25 ng/mL) and 10% fetal calf serum. After 4 h of plating the cells were placed in serum-free Ham's F-12 medium supplemented with insulin (10 ng/mL) and transferrin (25 ng/mL) for an additional 24 h. […] After washing and cell lysis for 24 h in Triton X-100, the amount of bound dye was measured at A600 in a microplate photometer (Titertek multiscan). […]

cells = experiment: Uptake of xyloside when added to cells; format: cell-based
From the text: Referring to FIG. 4, the results of treating rat C6 glioma cells with peracetylated Gal-4-Xyl-2-Nap-6-OH are shown. […] The reason for this difference is that peracetylated Gal-4-Xyl-2-Nap-6-OH is deacetylated by non-specific esterases after uptake into cells, whereby the resulting non-acetylated Gal-4-Xyl-2-Nap-6-OH remains trapped inside the cell resulting in a much higher local concentration. Accordingly, non-acetylated Gal-4-Xyl-2-Nap-6-OH is not taken up when added to cells.

HepG2 hepatoma cells [5] = settings: Mani et al. Glycobiology 14: 387-397; cited from earlier work
[6] = tested on: tumor cells located subcutaneously or orthotopically; experiment: Other animal experiments, tumor-bearing mice, various routes of administration; format: in vivo
Protocol: as §5, §6
Treatment with Xyl-2-Nap-6-OH reduce the average tumor load by 70-97% in mice receiving the compound concomitant with tumor cell inoculation as well as in mice with pre-formed tumors. […] Side-effects via inhibition of proteoglycan synthesis in cartilage and connective tissues is unlikely, as xyloside concentrations greater than 2 mM are required for their inhibition in vitro (Moses et al., 1999, Eur, J. Biochem. 26: 879-884).

[7] = tested on: rat C6 glioma cells implanted intracerebrally; experiment: Intracerebral C6 glioma tumors in rats; format: in vivo
Protocol: as §4, §5
as §6, with “In the latter case, the animals were randomly divided into control and treatment groups with no significant differences in tumor volume.” left out

[8] = tested on: SV40 virus infected fibroblasts; experiment: Growth inhibition of SV40 virus infected fibroblasts; format: cell-based; settings: combination with DFMO and spermine-NONOate
A549 cells [9] = experiment: Growth inhibition of A549 cells; format: cell-based; settings: combination with DFMO and spermine-NONOate
[10] = tested on: SV40 virus infected fibroblasts; settings: Mani et al. Glycobiology 14: 387-397; cited from earlier work
HepG2 hepatoma cells [11] = experiment: Growth inhibition of HepG2 hepatoma cells; format: cell-based; settings: combination with DFMO and spermine-NONOate
A549 cells [12] = settings: Mani et al. Glycobiology 14: 387-397; cited from earlier work
[13] = Saturated solution used for dosing; format: physicochemical; settings: drinking water / injection solution
Protocol: as §6

Compound: NCCCNCCCCN(CCCN)/[N+]([O-])=N/O [spermineNONOate, reference compound]
growth-inhibitory effect compared to untreated cells (control) (rat C6 glioma cells; 5 μM spermineNONOate alone): no significant growth-inhibitory effect
half-life of intracellular NO release [1]: 4 h

Compound: NCCC[C@](N)(C(=O)O)C(F)F [DFMO, α-difluoromethylornithine, reference compound]
higher concentration of DFMO in the drinking water required for the same effect with DFMO alone ([2]; relative to 0.1% w/v DFMO given with Xyl-2-Nap-6-OH (83% reduction)): 10-20 fold
growth-inhibitory effect compared to untreated cells (control) (rat C6 glioma cells; 5 mM DFMO alone): no significant growth-inhibitory effect

Compound: CC(=O)Oc1ccc2cc(O[C@@H]3OC[C@@H](OC(C)=O)[C@H](OC(C)=O)[C@H]3OC(C)=O)ccc2c1 [peracetylated Xyl-2-Nap-6-OH]
cytotoxic effect on T24 cells [3]: clear cytotoxic effect
effect on growth of normal human fibroblasts ([4]; 0.5 mM xyloside, FIG. 5B): does not affect growth

uptake when added to cells (cells): not taken up
Compound: OC[C@H]1O[C@@H](O[C@@H]2CO[C@@H](Oc3ccc4cc(O)ccc4c3)[C@H](O)[C@H]2O)[C@H](O)[C@@H](O)[C@H]1O [Gal-4-Xyl-2-Nap-6-OH, 2-(6-hydroxynaphthyl)-4-O-(β-D-galactopyranosyl)-β-D-xylopyranoside]

Compound: CC(=O)OC[C@H]1O[C@@H](O[C@@H]2CO[C@@H](Oc3ccc4cc(OC(C)=O)ccc4c3)[C@H](OC(C)=O)[C@H]2OC(C)=O)[C@H](OC(C)=O)[C@@H](OC(C)=O)[C@H]1OC(C)=O [peracetylated Gal-4-Xyl-2-Nap-6-OH]
effect on cell growth (rat C6 glioma cells; 0.2 mM xyloside alone): complete growth-arrest
potency relative to Xyl-2-Nap-6-OH at the same concentrations (rat C6 glioma cells; comparison of FIG. 4 with FIG. 1B): at least 5 fold
effect on cell growth (rat C6 glioma cells; xyloside in combination with 5 mM DFMO and 5 μM spermineNONOate): significant cytotoxic effect

Compound: Oc1ccc2cc(OC3OCC(O)C(O)C3O)ccc2c1 (centres unmarked) [Xyl-2-Nap-6-OH]
subcutaneous C6 glioma tumor weight reduced ([2]; SCID mice, daily contralateral s.c. injections of 1.7 mM solution, 0.5 ml, 2 weeks, FIG. 6A): 78%
tumor-load reduced ([2]; mice treated with xyloside plus DFMO 0.1% w/v via the drinking water, FIG. 6C): 83%
growth inhibition (HepG2 hepatoma cells [5]): selectively inhibits growth
reduction of average tumor load ([6]; mice, compound given concomitant with tumor cell inoculation or to pre-formed tumors): 70-97%
toxic side-effects in vivo ([6]; mouse, in vivo): lack of obvious toxic side-effects
absorption and availability to tumor cells ([6]; various ways of administration including oral): adsorbed and made available to tumor cells
blood-brain barrier penetration ([7]; inferred from reduced intracerebral tumor volume in rats): can penetrate the blood-brain barrier
tumor volume ([7]; rats, intracerebral C6 glioma, daily s.c. injections of 1.7 mM solution, 5 ml, 2 weeks, FIG. 6B): reduced
effect of xyloside with DFMO and spermine-NONOate [8]: Synergistic cytotoxic effects
effect of xyloside with DFMO and spermine-NONOate (A549 cells [9]): Synergistic cytotoxic effects
inhibits growth (rat C6 glioma cells; 0.5 mM xyloside alone): 65%
inhibits growth (rat C6 glioma cells; 0.5 mM xyloside combined with 5 mM DFMO and 5 μM spermineNONOate): 93%
growth inhibition [10]: selectively inhibits growth
effect of xyloside with DFMO and spermine-NONOate (HepG2 hepatoma cells [11]): Synergistic cytotoxic effects
effect on cell growth ([3]; 0.2 mM xyloside alone, FIG. 2): marginally affected
effect on cell growth ([3]; 0.2 mM xyloside and 5 mM DFMO with 2.5 5 μM spermineNONOate): insufficient
effect on cell growth ([3]; 0.2 mM xyloside combined with 5 mM DFMO and 5 μM spermineNONOate, FIG. 2): complete cell death
effect on cell growth ([3]; 0.5 mM xyloside alone, FIG. 2): completely growth-arrested
cytotoxic effect on T24 cells [3]: marginally cytotoxic
reduction of cell growth ([4]; 0.2 mM xyloside, 5 mM DFMO and 5 μM spermineNONOate, FIG. 3): 20%
growth inhibition (A549 cells [12]): selectively inhibits growth
concentration of saturated solution [13]: 1.7 mM

From patent publication US20080027023A1, “Antiproliferative Compositions Comprising Aryl Substituted Xylopyranoside Derivatives” (priority 2004, published 2008)
